Values after ≈ are worked out from the molar mass of the structure shown.
Key:
Test in all cases: organism not typed
L. bozemanii = format: cell-based
L. domoffli = format: cell-based, L. dumoffii
L. wadsworthii = format: cell-based
L. longbeacheae = format: cell-based

C=CC(C)(C)c1cc(/C=C/C(=O)c2ccc(O)cc2)c(OC)cc1O [Licochalcone A, licochalcone A]
MIC (L. bozemanii): 2 µg/mL (≈ 5.91 µM) | MIC (L. domoffli): 2 µg/mL (≈ 5.91 µM) | MIC (L. wadsworthii): 2 µg/mL (≈ 5.91 µM) | MIC (L. longbeacheae): 1 µg/mL (≈ 2.96 µM)

Source: US6603046B1, “Bis-aromatic a,β-unsaturated ketones” (Lica Pharmaceuticals A/S, priority 1992, dated 2003)
